Experimental data reported in article PMC5218480 (PLoS ONE, 2017).

System: MV-4-11 cells
Assay: Gene expression microarray analysis (Affymetrix PrimeView) and GSEA
Format: cell-based, human
Parameters: RFU PODN (11730768_x_at) / Fold change /veh PODN (11730768_x_at) / RFU LINC00158 (11744669_a_at) / Fold change /veh LINC00158 (11744669_a_at) / RFU DUSP10 (11751237_a_at) / Fold change /veh DUSP10 (11751237_a_at) / RFU ID3 (11757404_x_at) / Fold change /veh ID3 (11757404_x_at) / RFU PLEKHG5 (11737974_s_at) / Fold change /veh PLEKHG5 (11737974_s_at) / RFU LRRC4B (11730491_at) / Fold change /veh LRRC4B (11730491_at) / RFU GIMAP4 (11747438_a_at) / Fold change /veh GIMAP4 (11747438_a_at) / RFU KRT8 (11758183_x_at) / Fold change /veh KRT8 (11758183_x_at) / RFU CNN1 (11734310_a_at) / Fold change /veh CNN1 (11734310_a_at) / RFU VPS37D (11726825_at) / Fold change /veh VPS37D (11726825_at) / RFU C10orf10 (11716522_x_at) / Fold change /veh C10orf10 (11716522_x_at) / RFU KIR2DL2 /// KIR2DL4 /// KIR2DL5A /// KIR2DL5B /// KIR2DS1 /// KIR2DS2 /// KIR2DS3 /// KIR2DS4 /// KIR3DL3 /// KIR3DL3 /// KIR3DS1 (11738374_at) / Fold change /veh KIR2DL2 /// KIR2DL4 /// KIR2DL5A /// KIR2DL5B /// KIR2DS1 /// KIR2DS2 /// KIR2DS3 /// KIR2DS4 /// KIR3DL3 /// KIR3DL3 /// KIR3DS1 (11738374_at) / RFU C1QL1 (11718748_at) / Fold change /veh C1QL1 (11718748_at) / RFU TMPRSS4 (11747572_a_at) / Fold change /veh TMPRSS4 (11747572_a_at) / RFU HAMP (11756126_x_at) / Fold change /veh HAMP (11756126_x_at) / RFU RNFT2 (11725882_a_at) / Fold change /veh RNFT2 (11725882_a_at) / RFU NR4A2 (11747474_a_at) / Fold change /veh NR4A2 (11747474_a_at) / RFU ABCC12 (11746883_a_at) / Fold change /veh ABCC12 (11746883_a_at) / RFU TMEM136 (11760407_x_at) / Fold change /veh TMEM136 (11760407_x_at) / RFU CLDN22 /// WWC2 (11732394_at) / Fold change /veh CLDN22 /// WWC2 (11732394_at) / RFU HLA-DPB1 (11760878_x_at) / Fold change /veh HLA-DPB1 (11760878_x_at) / RFU SPINT1 (11716480_a_at) / Fold change /veh SPINT1 (11716480_a_at) / RFU GAP43 (11754022_s_at) / Fold change /veh GAP43 (11754022_s_at) / RFU A4GNT (11735810_at) / Fold change /veh A4GNT (11735810_at) / RFU PRB3 (11715151_x_at) / Fold change /veh PRB3 (11715151_x_at) / RFU TUBB4B (11761932_at) / Fold change /veh TUBB4B (11761932_at) / RFU CAPN14 (11732068_a_at) / Fold change /veh CAPN14 (11732068_a_at) / RFU TMCC2 (11721928_a_at) / Fold change /veh TMCC2 (11721928_a_at) / RFU IRGQ (11745062_a_at) / Fold change /veh IRGQ (11745062_a_at) / RFU FAM174B (11720279_a_at) / Fold change /veh FAM174B (11720279_a_at) / RFU TMPRSS4 (11748680_a_at) / Fold change /veh TMPRSS4 (11748680_a_at) / RFU FAM212B (11763350_a_at) / Fold change /veh FAM212B (11763350_a_at) / RFU PLEKHG5 (11743358_a_at) / Fold change /veh PLEKHG5 (11743358_a_at) / RFU ZSCAN30 (11745921_a_at) / Fold change /veh ZSCAN30 (11745921_a_at) / RFU CMKLR1 (11741424_a_at) / Fold change /veh CMKLR1 (11741424_a_at) / RFU LOC101060620 /// MAPK8IP1 (11723275_at) / Fold change /veh LOC101060620 /// MAPK8IP1 (11723275_at) / RFU SPTSSB (11747773_x_at) / Fold change /veh SPTSSB (11747773_x_at) / RFU PRSS12 (11739890_at) / Fold change /veh PRSS12 (11739890_at) / RFU BIN1 (11741810_x_at) / Fold change /veh BIN1 (11741810_x_at) / RFU WNT11 (11732464_a_at) / Fold change /veh WNT11 (11732464_a_at) / RFU C10orf10 (11716521_a_at) / Fold change /veh C10orf10 (11716521_a_at) / RFU C5orf56 (11738089_at) / Fold change /veh C5orf56 (11738089_at) / RFU CYB561 (11721691_x_at) / Fold change /veh CYB561 (11721691_x_at) / RFU ANKRD19P (11752326_a_at) / Fold change /veh ANKRD19P (11752326_a_at) / RFU OR2T12 /// OR2T33 /// OR2T8 (11738714_s_at) / Fold change /veh OR2T12 /// OR2T33 /// OR2T8 (11738714_s_at) / RFU VCAN (11748164_a_at) / Fold change /veh VCAN (11748164_a_at) / RFU JSRP1 (11732532_at) / Fold change /veh JSRP1 (11732532_at) / RFU KRTAP10-11 (11738290_x_at) / Fold change /veh KRTAP10-11 (11738290_x_at) / RFU MYO3A (11730013_a_at) / Fold change /veh MYO3A (11730013_a_at) / RFU EBF3 (11725865_a_at) / Fold change /veh EBF3 (11725865_a_at) / RFU CAMK2N1 (11719241_x_at) / Fold change /veh CAMK2N1 (11719241_x_at) / RFU C5orf56 (11738088_a_at) / Fold change /veh C5orf56 (11738088_a_at) / RFU OLFML3 (11715873_a_at) / Fold change /veh OLFML3 (11715873_a_at) / RFU LOC100653217 /// NTM (11731650_a_at) / Fold change /veh LOC100653217 /// NTM (11731650_a_at) / RFU MAPK11 (11762145_a_at) / Fold change /veh MAPK11 (11762145_a_at) / RFU FIZ1 (11724087_x_at) / Fold change /veh FIZ1 (11724087_x_at) / RFU OASL (11726364_x_at) / Fold change /veh OASL (11726364_x_at) / RFU SOX15 (11748057_x_at) / Fold change /veh SOX15 (11748057_x_at) / RFU CD79A (11719716_a_at) / Fold change /veh CD79A (11719716_a_at) / RFU HIST1H1D (11736915_at) / Fold change /veh HIST1H1D (11736915_at) / RFU CASKIN2 (11723855_a_at) / Fold change /veh CASKIN2 (11723855_a_at) / RFU LOC730098 (11760151_x_at) / Fold change /veh LOC730098 (11760151_x_at) / RFU OR4N2 (11742367_at) / Fold change /veh OR4N2 (11742367_at) / RFU PRRT2 (11749266_a_at) / Fold change /veh PRRT2 (11749266_a_at) / RFU SNX32 (11753110_a_at) / Fold change /veh SNX32 (11753110_a_at) / RFU CDHR5 (11726645_a_at) / Fold change /veh CDHR5 (11726645_a_at) / RFU RCAN1 (11760418_a_at) / Fold change /veh RCAN1 (11760418_a_at) / RFU FAM167A (11723789_a_at) / Fold change /veh FAM167A (11723789_a_at) / RFU FAM26E (11764081_at) / Fold change /veh FAM26E (11764081_at) / RFU ISYNA1 (11749810_s_at) / Fold change /veh ISYNA1 (11749810_s_at) / RFU ACY1 (11761880_at) / Fold change /veh ACY1 (11761880_at) / RFU 11764098_at / Fold change /veh 11764098_at / RFU SAMD14 (11745864_x_at) / Fold change /veh SAMD14 (11745864_x_at) / RFU NPB (11741838_a_at) / Fold change /veh NPB (11741838_a_at) / RFU TMPRSS6 (11731388_a_at) / Fold change /veh TMPRSS6 (11731388_a_at) / RFU KRTAP10-2 (11738614_at) / Fold change /veh KRTAP10-2 (11738614_at) / RFU ARHGAP8 /// PRR5-ARHGAP8 (11727945_x_at) / Fold change /veh ARHGAP8 /// PRR5-ARHGAP8 (11727945_x_at) / RFU KRTAP5-7 /// NADSYN1 (11734609_at) / Fold change /veh KRTAP5-7 /// NADSYN1 (11734609_at) / RFU RASL12 (11751679_a_at) / Fold change /veh RASL12 (11751679_a_at) / RFU CDKN2B (11736163_a_at) / Fold change /veh CDKN2B (11736163_a_at) / RFU PRF1 (11729649_at) / Fold change /veh PRF1 (11729649_at) / RFU, ZNF638 /// ZNF638-IT1 / Fold change vs veh, ZNF638 /// ZNF638-IT1 / RFU, PANK3 / Fold change vs veh, PANK3 / RFU, SH3YL1 / Fold change vs veh, SH3YL1 / RFU, ZEB2 / Fold change vs veh, ZEB2 / RFU, NRIP1 / Fold change vs veh, NRIP1 / RFU, PTTG1IP / Fold change vs veh, PTTG1IP / RFU, CAPN2 / Fold change vs veh, CAPN2 / RFU, MED14 / Fold change vs veh, MED14 / RFU, SNORA58 / Fold change vs veh, SNORA58 / RFU, C1orf63 / Fold change vs veh, C1orf63 / RFU, LRRFIP1 / Fold change vs veh, LRRFIP1 / RFU, NDUFAF7 / Fold change vs veh, NDUFAF7 / RFU, SLC12A2 / Fold change vs veh, SLC12A2 / RFU, IBTK / Fold change vs veh, IBTK / RFU, ESF1 / Fold change vs veh, ESF1 / Fold change vs veh, TMEM50B / RFU, TAOK1 / Fold change vs veh, TAOK1 / RFU, ACBD3 / Fold change vs veh, ACBD3 / RFU, TMA16 / Fold change vs veh, TMA16 / RFU, RWDD3 / Fold change vs veh, RWDD3 / RFU, BCAT1 / Fold change vs veh, BCAT1 / RFU, EDEM3 / Fold change vs veh, EDEM3 / RFU, TMEM33 / Fold change vs veh, TMEM33 / RFU, WDR75 / Fold change vs veh, WDR75 / RFU, AHCTF1 / Fold change vs veh, AHCTF1 / RFU, TFRC / Fold change vs veh, TFRC / RFU, ZDHHC17 / Fold change vs veh, ZDHHC17 / RFU, NOM1 / Fold change vs veh, NOM1 / RFU, ARL8B / Fold change vs veh, ARL8B / RFU, ZBTB11 / Fold change vs veh, ZBTB11 / RFU, TAMM41 / Fold change vs veh, TAMM41 / RFU, KIAA1704 /// LOC100996395 / Fold change vs veh, KIAA1704 /// LOC100996395 / RFU, ING1 / Fold change vs veh, ING1 / RFU, TRMT61B / Fold change vs veh, TRMT61B / RFU, FUBP3 / Fold change vs veh, FUBP3 / RFU, TP53 / Fold change vs veh, TP53 / RFU, TNKS2 / Fold change vs veh, TNKS2 / RFU, ZFP14 / Fold change vs veh, ZFP14 / RFU, ACTR2 / Fold change vs veh, ACTR2 / RFU, PPP3R1 / Fold change vs veh, PPP3R1 / RFU, PIK3R1 / Fold change vs veh, PIK3R1 / RFU, HNRNPA1 / Fold change vs veh, HNRNPA1 / RFU, RNF170 / Fold change vs veh, RNF170 / RFU, ZNF28 / Fold change vs veh, ZNF28 / RFU, RNGTT / Fold change vs veh, RNGTT / RFU, OGT / Fold change vs veh, OGT / RFU, BRD1 / Fold change vs veh, BRD1 / RFU, MARS / Fold change vs veh, MARS / RFU, ZNF655 / Fold change vs veh, ZNF655 / RFU, FAHD1 / Fold change vs veh, FAHD1 / RFU, BDP1 / Fold change vs veh, BDP1 / RFU, LRRCC1 / Fold change vs veh, LRRCC1 / RFU, ARID1A / Fold change vs veh, ARID1A / RFU, ZNF146 / Fold change vs veh, ZNF146 / RFU, ZNF330 / Fold change vs veh, ZNF330 / RFU, GPN3 / Fold change vs veh, GPN3 / RFU, C9orf123 / Fold change vs veh, C9orf123 / RFU, N4BP2L2 / Fold change vs veh, N4BP2L2 / RFU, ARFIP1 / Fold change vs veh, ARFIP1 / RFU, FAM179B / Fold change vs veh, FAM179B / RFU, BCL10 / Fold change vs veh, BCL10 / RFU, UHRF1BP1L / Fold change vs veh, UHRF1BP1L / RFU, BET1 / Fold change vs veh, BET1 / RFU, CNOT2 / Fold change vs veh, CNOT2 / RFU, ZNF268 / Fold change vs veh, ZNF268 / Fold change vs veh, ZNF507 / RFU, DGCR2 / Fold change vs veh, DGCR2 / RFU, WDSUB1 / Fold change vs veh, WDSUB1 / Fold change vs veh, HSP90B1 /// MIR3652 / RFU, ADSS / Fold change vs veh, ADSS / RFU, GK / Fold change vs veh, GK / RFU, ZNF148 / Fold change vs veh, ZNF148 / RFU, TAF9 / Fold change vs veh, TAF9 / RFU, SLC1A5 / Fold change vs veh, SLC1A5 / RFU, SLMO2 / Fold change vs veh, SLMO2 / RFU, ABCC4 / Fold change vs veh, ABCC4 / RFU, LOC101060439 /// RAP1B / Fold change vs veh, LOC101060439 /// RAP1B / RFU, RFX7 / Fold change vs veh, RFX7 / RFU, GTPBP10 / Fold change vs veh, GTPBP10 / RFU, CNEP1R1 / Fold change vs veh, CNEP1R1 / RFU, BIVM-ERCC5 /// ERCC5 / Fold change vs veh, BIVM-ERCC5 /// ERCC5 / RFU, ILF3 / Fold change vs veh, ILF3 / RFU 11762660_at / Fold change /veh 11762660_at / RFU VCAN (11757783_s_at) / Fold change /veh VCAN (11757783_s_at) / RFU DDX43 (11728927_at) / Fold change /veh DDX43 (11728927_at) / RFU KRT8 (11758188_x_at) / Fold change /veh KRT8 (11758188_x_at) / RFU NKD1 (11759106_at) / Fold change /veh NKD1 (11759106_at) / RFU SRD5A1 (11742802_a_at) / Fold change /veh SRD5A1 (11742802_a_at) / RFU TPSAB1 /// TPSB2 (11721975_s_at) / Fold change /veh TPSAB1 /// TPSB2 (11721975_s_at) / RFU GSTM3 (11746129_a_at) / Fold change /veh GSTM3 (11746129_a_at) / RFU IL23R (11737362_x_at) / Fold change /veh IL23R (11737362_x_at) / RFU TMEM51 (11727254_a_at) / Fold change /veh TMEM51 (11727254_a_at) / RFU PIWIL2 (11732686_x_at) / Fold change /veh PIWIL2 (11732686_x_at) / RFU ORM1 (11744905_x_at) / Fold change /veh ORM1 (11744905_x_at) / RFU CCDC152 (11743942_at) / Fold change /veh CCDC152 (11743942_at) / RFU ECM1 (11717891_a_at) / Fold change /veh ECM1 (11717891_a_at) / RFU IL23R (11748794_a_at) / Fold change /veh IL23R (11748794_a_at) / RFU TNFAIP8L3 (11732012_x_at) / Fold change /veh TNFAIP8L3 (11732012_x_at) / RFU MBOAT4 (11741988_at) / Fold change /veh MBOAT4 (11741988_at) / RFU 11764193_at / Fold change /veh 11764193_at / RFU TMEM53 (11763286_at) / Fold change /veh TMEM53 (11763286_at) / RFU MAGEB2 (11727129_at) / Fold change /veh MAGEB2 (11727129_at) / RFU TMEM200A (11744735_a_at) / Fold change /veh TMEM200A (11744735_a_at) / RFU CCDC152 (11751479_a_at) / Fold change /veh CCDC152 (11751479_a_at) / RFU FAM211A (11726209_a_at) / Fold change /veh FAM211A (11726209_a_at) / RFU RGS16 (11746705_a_at) / Fold change /veh RGS16 (11746705_a_at) / RFU VCAN (11755009_s_at) / Fold change /veh VCAN (11755009_s_at) / RFU RHOB (11743442_s_at) / Fold change /veh RHOB (11743442_s_at) / RFU RGS16 (11720943_a_at) / Fold change /veh RGS16 (11720943_a_at) / RFU RGS16 (11720944_at) / Fold change /veh RGS16 (11720944_at) / RFU, VPS4B / Fold change vs veh, VPS4B / RFU, CREB1 / Fold change vs veh, CREB1 / RFU, DNAJC13 / Fold change vs veh, DNAJC13 / RFU, GNAQ / Fold change vs veh, GNAQ / RFU, CDK5R1 / Fold change vs veh, CDK5R1 / RFU, ZRANB3 / Fold change vs veh, ZRANB3 / RFU, CUL4A / Fold change vs veh, CUL4A / RFU, CCNY / Fold change vs veh, CCNY / RFU, UFL1 / Fold change vs veh, UFL1 / RFU, COG3 / Fold change vs veh, COG3 / RFU, DIAPH2 / Fold change vs veh, DIAPH2 / RFU, SKA2 / Fold change vs veh, SKA2 / RFU, AFF3 / Fold change vs veh, AFF3 / RFU, LMF1 / Fold change vs veh, LMF1 / RFU, IPO11 / Fold change vs veh, IPO11 / RFU, DFFB / Fold change vs veh, DFFB / RFU, FOXP1 / Fold change vs veh, FOXP1 / RFU, CARD8 / Fold change vs veh, CARD8 / RFU, STRN3 / Fold change vs veh, STRN3 / RFU, ADK / Fold change vs veh, ADK / RFU, RASSF2 / Fold change vs veh, RASSF2 / RFU, WIPF1 / Fold change vs veh, WIPF1 / RFU, LARP1B / Fold change vs veh, LARP1B / RFU, RASA1 / Fold change vs veh, RASA1 / RFU, RB1 / Fold change vs veh, RB1 / RFU, PPFIA1 / Fold change vs veh, PPFIA1 / RFU, MAT2A / Fold change vs veh, MAT2A / RFU, CCT5 / Fold change vs veh, CCT5 / RFU, WDR92 / Fold change vs veh, WDR92 / RFU, CUX1 / Fold change vs veh, CUX1 / RFU, TTC7A / Fold change vs veh, TTC7A / RFU, TMEM135 / Fold change vs veh, TMEM135 / RFU, DEPTOR / Fold change vs veh, DEPTOR / RFU, CPM / Fold change vs veh, CPM / RFU, DNAJB6 / Fold change vs veh, DNAJB6 / RFU, CACNA2D3 / Fold change vs veh, CACNA2D3 / RFU, DTX4 / Fold change vs veh, DTX4 / RFU, TFCP2 / Fold change vs veh, TFCP2 / RFU, GMCL1 /// GMCL1P1 / Fold change vs veh, GMCL1 /// GMCL1P1 / RFU, AEBP2 / Fold change vs veh, AEBP2 / RFU, SNHG1 /// SNORD22 /// SNORD25 /// SNORD26 /// SNORD27 /// SNORD28 /// SNORD29 /// SNORD31 / Fold change vs veh, SNHG1 /// SNORD22 /// SNORD25 /// SNORD26 /// SNORD27 /// SNORD28 /// SNORD29 /// SNORD31 / Fold change (Aza/veh), C12orf56 (ProbeSet 11735607_a_at) / Fold change (ACY-1035/veh), C12orf56 (ProbeSet 11735607_a_at) / Fold change (Aza/veh), FGFR1OP (ProbeSet 11751329_s_at) / Fold change (ACY-1035/veh), FGFR1OP (ProbeSet 11751329_s_at) / Fold change (Aza/veh), VPS36 (ProbeSet 11739960_a_at) / Fold change (ACY-1035/veh), VPS36 (ProbeSet 11739960_a_at) / RFU SYPL1 (11715823_x_at) / Fold change /veh SYPL1 (11715823_x_at) / RFU IGFBP7 (11715501_s_at) / Fold change /veh IGFBP7 (11715501_s_at) / RFU REEP3 (11722064_at) / Fold change /veh REEP3 (11722064_at) / RFU IGLL1 (11728026_x_at) / Fold change /veh IGLL1 (11728026_x_at): dose or concentration left out as unconfirmed
Conditions: ProbeSet 11731610_x_at; LIST B

Nc1ccc(-c2cccs2)cc1NC(=O)c1ccc2c(c1)cc(C1CC1)n2CCN1CCOCC1 [ACY-1035]
Fold change vs veh, KIAA1704 /// LOC100996395: 0.91
